Consider 13 compounds from PubChem BioAssay (NCI).

Where “and” joins values, the source holds several entries; their conditions need not be identical. Identical values can stand only once.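 Each compound was tested at five concentrations against cells in 96-well plates for 48 hours. GI50 is the concentration that inhibits growth by half. TGI: total growth inhibition.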

Among the test systems are HOP-62 NSCLC; HCT-15 colon; UACC-257 melanoma; HCT-116 colon; RXF 393 renal; SF-268 CNS; A498 renal; NCI-H522 lung; CCRF-CEM leukemia; SK-MEL-5 melanoma.
Experiment in all cases: NCI tumour cell line growth inhibition, 48 h

For `Cc1nn2c(/C=C3/C(=O)Nc4ccc(Cl)cc43)c(-c3ccccc3)nc2s1`, the GI50 in the experiment on HOP-62 NSCLC was 2.01 µM; in the experiment with HCT-15 colon, 4.65 µM; in the experiment with UACC-257 melanoma, 3.11 µM; with HCT-116 colon it was 1.9 µM; in the experiment with RXF 393 renal, 1.91 µM; in the experiment on SF-268 CNS, 2.06 µM. In addition, the GI50 was 1.63 µM in the experiment with A498 renal, 4.26 µM in the experiment with NCI-H522 lung, 4.06 µM with CCRF-CEM leukemia and 4.07 µM in the experiment on SK-MEL-5 melanoma. In addition, the TGI came to 3.99 µM in the experiment on HOP-62 NSCLC; 31.9 µM in the experiment with HCT-15 colon; 11.1 µM with UACC-257 melanoma; 4.61 µM with HCT-116 colon; 4.71 µM in the experiment on RXF 393 renal; 5.19 µM in the experiment with SF-268 CNS. In addition, the TGI in the experiment on A498 renal turned out to be 10.6 µM; in the experiment on NCI-H522 lung, 17.9 µM; in the experiment on CCRF-CEM leukemia, 23.7 µM; with SK-MEL-5 melanoma, 23.2 µM.
For `O=C(O)c1ccc(NS(=O)(=O)c2cccc3cccnc23)cc1`, the GI50 in the experiment with HOP-62 NSCLC, with HCT-15 colon, in the experiment on UACC-257 melanoma, in the experiment with HCT-116 colon, in the experiment on RXF 393 renal and in the experiment with SF-268 CNS was over 100 µM each time. For the same compound, the GI50 with A498 renal, with NCI-H522 lung, in the experiment on CCRF-CEM leukemia and with SK-MEL-5 melanoma was over 100 µM in each case. Further, the TGI in the experiment with HOP-62 NSCLC, in the experiment on HCT-15 colon, in the experiment on UACC-257 melanoma, with HCT-116 colon, with RXF 393 renal and with SF-268 CNS was over 100 µM throughout. Moreover, the TGI with A498 renal, with NCI-H522 lung, in the experiment on CCRF-CEM leukemia and with SK-MEL-5 melanoma was over 100 µM in each case.
On to `CCN(CC)CCCC(C)Nc1cnc(C(=O)Nc2cc(F)cc3cccnc23)cn1` (stereo unspecified), for which the GI50 is 10.8 µM and 1.89 µM with HOP-62 NSCLC; 3.45 µM and 0.751 µM in the experiment on HCT-15 colon; 1.99 µM and 0.563 µM in the experiment with UACC-257 melanoma; 2.7 µM and 0.35 µM in the experiment on HCT-116 colon; 4.26 µM and 1.32 µM in the experiment on RXF 393 renal; 5.32 µM and 1.56 µM with SF-268 CNS. Moreover, the GI50 in the experiment on A498 renal is 2.72 µM and 1.6 µM; with NCI-H522 lung, 5.51 µM and 1.26 µM; in the experiment on CCRF-CEM leukemia, 2.55 µM and 0.478 µM; in the experiment on SK-MEL-5 melanoma, 1.78 µM and 1.58 µM. In addition, the TGI in the experiment on HOP-62 NSCLC was 25.3 µM and 3.62 µM; in the experiment on HCT-15 colon, 13.8 µM and 2.69 µM; with UACC-257 melanoma, 4.13 µM and 1.94 µM; in the experiment on HCT-116 colon, 10.1 µM and 1.23 µM; in the experiment with RXF 393 renal, 16.9 µM and 2.69 µM; with SF-268 CNS, 20.9 µM and 3.25 µM. The TGI with A498 renal is 14.5 µM and 3.24 µM; in the experiment on NCI-H522 lung, 19 µM and 2.9 µM; in the experiment with CCRF-CEM leukemia, 10.6 µM; in the experiment on SK-MEL-5 melanoma, 3.37 µM and 2.95 µM.
As for `COc1ccc(C2=C(c3cn(C)c4ccccc34)C(=O)NC2=O)cc1OC`, the GI50 in the experiment on HOP-62 NSCLC is 11.8 µM; with HCT-15 colon, 6.4 µM; with UACC-257 melanoma, over 25 µM; with HCT-116 colon it was 6.68 µM; in the experiment on RXF 393 renal, 6.44 µM; in the experiment with SF-268 CNS, 8.85 µM. In addition, the GI50 with A498 renal is 3.43 µM; with NCI-H522 lung, 7.65 µM; with CCRF-CEM leukemia it was 6.38 µM; in the experiment on SK-MEL-5 melanoma it was 6.11 µM. Also, the TGI in the experiment with HOP-62 NSCLC, in the experiment on HCT-15 colon, in the experiment on UACC-257 melanoma, in the experiment on HCT-116 colon, in the experiment on RXF 393 renal and in the experiment on SF-268 CNS was over 25 µM each time. In addition, the TGI in the experiment with A498 renal is 8.95 µM; with NCI-H522 lung, over 21.9 µM; in the experiment on CCRF-CEM leukemia it was over 25 µM; in the experiment with SK-MEL-5 melanoma it was over 22.3 µM.
As for `COC[C@H]1OC(=O)c2coc3c2[C@@]1(C)C1=C(C3=O)[C@@H]2CCC(=O)[C@@]2(C)C[C@H]1OC(C)=O`, the TGI with HOP-62 NSCLC was over 100 µM; with HCT-15 colon, over 100 µM; in the experiment with UACC-257 melanoma, over 100 µM; with HCT-116 colon, over 100 µM; in the experiment on RXF 393 renal, 3.07 µM; in the experiment on SF-268 CNS it was over 100 µM. Further, the TGI in the experiment with A498 renal was 17.3 µM; in the experiment on NCI-H522 lung it was over 71.9 µM; in the experiment with CCRF-CEM leukemia, over 53.5 µM; in the experiment with SK-MEL-5 melanoma, 61 µM. The GI50 is 0.264 µM in the experiment with RXF 393 renal and 0.58 µM with A498 renal.
Turning to `COc1ccc(/C=C(\C#N)c2cc(OC)c3c(c2)OCO3)cc1`, the GI50 in the experiment on HOP-62 NSCLC is under 0.0125 µM; with HCT-15 colon, 0.0118 µM; in the experiment on UACC-257 melanoma, 17 µM; with HCT-116 colon, under 0.0121 µM; in the experiment on RXF 393 renal, under 0.01 µM; with SF-268 CNS it was under 0.01 µM. Further, the GI50 in the experiment with A498 renal was under 0.01 µM; in the experiment with NCI-H522 lung it was under 0.01 µM; in the experiment on CCRF-CEM leukemia, 0.0226 µM; with SK-MEL-5 melanoma, 0.0101 µM. For the same compound, the TGI is 24.1 µM with HOP-62 NSCLC; over 73.6 µM in the experiment on HCT-15 colon; 57 µM with UACC-257 melanoma; 4.39 µM in the experiment with HCT-116 colon; 30.6 µM with RXF 393 renal; 52.6 µM with SF-268 CNS. In addition, the TGI in the experiment on A498 renal is 0.193 µM; in the experiment on CCRF-CEM leukemia, over 100 µM; with SK-MEL-5 melanoma, 0.245 µM.
For the compound `Cc1ccc2c(=O)[nH]sc2c1`, the TGI with HOP-62 NSCLC was 36.7 µM; in the experiment with HCT-15 colon it was 39.4 µM; in the experiment on UACC-257 melanoma, 44.1 µM; in the experiment on HCT-116 colon, over 100 µM; in the experiment with RXF 393 renal it was 28.6 µM; in the experiment with SF-268 CNS, 39 µM. Besides, the TGI with A498 renal is over 100 µM; in the experiment on NCI-H522 lung, 8.26 µM; in the experiment with CCRF-CEM leukemia it was 13.9 µM; in the experiment on SK-MEL-5 melanoma it was 25.6 µM.
With `COc1ccc(C=NC23CC4CC(CC(C4)C2)C3)cc1`, the TGI in the experiment on HOP-62 NSCLC, with HCT-15 colon, in the experiment with UACC-257 melanoma, in the experiment with HCT-116 colon, in the experiment on RXF 393 renal and in the experiment on SF-268 CNS was over 100 µM in each case. Also, the TGI with A498 renal, in the experiment with NCI-H522 lung, in the experiment on CCRF-CEM leukemia and in the experiment with SK-MEL-5 melanoma was over 100 µM each time.
For `Cn1c(=O)c2[nH]c(COCc3nc4c([nH]3)c(=O)n(C)c(=O)n4C)nc2n(C)c1=O`, the TGI in the experiment with HOP-62 NSCLC, in the experiment on HCT-15 colon, with UACC-257 melanoma, in the experiment with HCT-116 colon, in the experiment on RXF 393 renal and in the experiment on SF-268 CNS was over 100 µM each time. Moreover, the TGI in the experiment with A498 renal, in the experiment with NCI-H522 lung, in the experiment with CCRF-CEM leukemia and in the experiment on SK-MEL-5 melanoma was over 100 µM throughout.
Turning to `Cc1ccc(C(=O)N/N=C/c2cccc(Oc3ccccc3)c2)cn1`, the GI50 was 60.2 µM with HOP-62 NSCLC; 3.89 µM with HCT-15 colon; over 56.3 µM with UACC-257 melanoma; 4.69 µM in the experiment on HCT-116 colon; 18.9 µM in the experiment on RXF 393 renal; 34.5 µM with SF-268 CNS. The GI50 was 9.99 µM with A498 renal, 7.38 µM with NCI-H522 lung, 4.25 µM with CCRF-CEM leukemia and 5.21 µM in the experiment on SK-MEL-5 melanoma. Besides, the TGI in the experiment with HOP-62 NSCLC, in the experiment on HCT-15 colon, in the experiment with UACC-257 melanoma, in the experiment with HCT-116 colon, in the experiment on RXF 393 renal and with SF-268 CNS was over 100 µM each time. The TGI in the experiment with A498 renal is over 100 µM; in the experiment with NCI-H522 lung it was over 69.8 µM; with CCRF-CEM leukemia, over 100 µM; with SK-MEL-5 melanoma, over 100 µM.
Take `CC1(C)N=C(N)N=C(N)N1c1cccc(CCCCc2ccc(S(=O)(=O)F)cc2Cl)c1`: the GI50 in the experiment on HOP-62 NSCLC is 5.72 µM; in the experiment on HCT-15 colon, 4.61 µM; with UACC-257 melanoma, 2.15 µM; in the experiment with HCT-116 colon, 1.06 µM; in the experiment with RXF 393 renal it was 9.46 µM; in the experiment on SF-268 CNS, 1.96 µM. Also, the GI50 was over 48.2 µM in the experiment with A498 renal, 3.6 µM with NCI-H522 lung, 3.29 µM with CCRF-CEM leukemia and 1.87 µM with SK-MEL-5 melanoma. For the same compound, the TGI in the experiment with HOP-62 NSCLC was 20.7 µM; in the experiment with HCT-15 colon, over 100 µM; in the experiment with UACC-257 melanoma, 20.8 µM; with HCT-116 colon, over 37.7 µM; in the experiment on RXF 393 renal, over 87.3 µM; in the experiment with SF-268 CNS it was 17.4 µM. Also, the TGI in the experiment with A498 renal is over 100 µM; in the experiment with NCI-H522 lung, 20 µM; in the experiment on CCRF-CEM leukemia, 36.5 µM; with SK-MEL-5 melanoma, 16.4 µM.
For `COc1cc(-c2cn(-c3ccc(Cl)cc3)c(=O)[nH]2)cc(OC)c1OC`, the GI50 with HOP-62 NSCLC, with HCT-15 colon, in the experiment on UACC-257 melanoma, in the experiment on HCT-116 colon, with RXF 393 renal and with SF-268 CNS was over 100 µM throughout. The GI50 in the experiment with A498 renal, in the experiment with NCI-H522 lung, with CCRF-CEM leukemia and in the experiment on SK-MEL-5 melanoma was over 100 µM in each case. Also, the TGI with HOP-62 NSCLC, in the experiment with HCT-15 colon, in the experiment on UACC-257 melanoma, with HCT-116 colon, with RXF 393 renal and in the experiment with SF-268 CNS was over 100 µM each time. In addition, the TGI in the experiment with A498 renal, in the experiment on NCI-H522 lung, in the experiment with CCRF-CEM leukemia and with SK-MEL-5 melanoma was over 100 µM throughout.
As for `O=C(O)c1ccc([N+](=O)[O-])c2c(=O)c3ccccc3[nH]c12`, the TGI with HOP-62 NSCLC, in the experiment with HCT-15 colon, in the experiment with UACC-257 melanoma, in the experiment on HCT-116 colon, in the experiment on RXF 393 renal and in the experiment on SF-268 CNS was over 100 µM throughout. Moreover, the TGI in the experiment on A498 renal, in the experiment with NCI-H522 lung, in the experiment with CCRF-CEM leukemia and with SK-MEL-5 melanoma was over 100 µM throughout.
